Laboratory results from patent US11529356B2, “2-(morpholin-4-yl)-1,7-naphthyridines” (Bayer Pharma Aktiengesellschaft, priority 2014, dated 2022).
pIC50: −log10 of the molar value.

Legend:
[1] = biological target: full-length human ATR protein (Homo sapiens (Human), UniProt Q13535); experiment: Binding Assay ATR (TR-FRET tracer displacement); conditions: tracer A
From the text: To determine of binding activity of the test compounds, full-length human ATR protein was expressed and purified together with ATRIP as described above. Furthermore, a fluorescently labelled compound (either tracer A or B as described above) was used as a tracer molecule. Detection of the binding event of the tracer was achieved by time-resolved fluorescence energy transfer (TR-FRET). We used an anti-GST-Terbium antibody (CisBio) that binds to the GST-tag at the N-terminus of ATR-kinase. […] Displacement of the fluorescent tracer by a test compound leads to a reduction of the TR-FRET-signal.
For the assay 50 nl of a 100-fold concentrated solution of the test compound in DMSO was pipetted into a black low volume 384 well microtiter plate (MTP, Greiner Bio-One, Frickenhausen, Germany). […] The ATR-working solution was incubated for 30 min at 22° C. prior to dispensing to pre-form the complex of antiGST-Tb+GST-ATR+ATRIP. Then, 3 μl of the ATR-working solution were added to the test compound and the mixture was incubated for 10 min at 22° C. to allow pre-binding of the test compounds to ATR/ATRIP. Then, 2 μl of a 100 nM solution of either tracer A or B in assay buffer were added to the ATR-working solution. The resulting mixture was incubated for 30 min at 22° C. […] IC50 values were calculated by a 4 parameter fit using standard software (GraphPad prism or equivalent).

Caco-2 cells = experiment: Proliferation Assay Caco-2 (crystal violet); assay type: cell-based; conditions: Homo sapiens, Caco-2, Caco-2 cells; read-out: Inhibition of Caco-2 cell proliferation IC50
Method: After 24 hours, the cells of one plate (zero plate) were dyed with crystal violet (see below), whereas the medium of the other plates was replaced with fresh culture medium (200 μl) to which the test substances were added in various concentrations (0 μM, and also in the range of 0.001-10 μM; the final concentration of the solvent dimethyl sulphoxide was 0.1 or 0.5%). The cells were incubated for 4 days in the presence of the test substances. […] After washing the fixed cells three times with water, the plates were dried at room temperature. The cells were stained by adding 100 μl/measurement point of a 0.1% strength crystal violet solution (pH adjusted to pH 3 by adding acetic acid). After washing the cells three times with water, the plates were dried at room temperature. The dye was dissolved by adding 100 μl/measurement point of a 10% strength acetic acid solution. […] The percentage change in cell growth was calculated by normalizing the measured values to the absorbance values of the zero plate (=0%) and the absorbance of the untreated (0 μM) cells (=100%). The IC50 values were determined by means of a four parameter fit.

Chain of full-length human ATR protein (Q13535 other isoform, or with tags, fused parts or gaps): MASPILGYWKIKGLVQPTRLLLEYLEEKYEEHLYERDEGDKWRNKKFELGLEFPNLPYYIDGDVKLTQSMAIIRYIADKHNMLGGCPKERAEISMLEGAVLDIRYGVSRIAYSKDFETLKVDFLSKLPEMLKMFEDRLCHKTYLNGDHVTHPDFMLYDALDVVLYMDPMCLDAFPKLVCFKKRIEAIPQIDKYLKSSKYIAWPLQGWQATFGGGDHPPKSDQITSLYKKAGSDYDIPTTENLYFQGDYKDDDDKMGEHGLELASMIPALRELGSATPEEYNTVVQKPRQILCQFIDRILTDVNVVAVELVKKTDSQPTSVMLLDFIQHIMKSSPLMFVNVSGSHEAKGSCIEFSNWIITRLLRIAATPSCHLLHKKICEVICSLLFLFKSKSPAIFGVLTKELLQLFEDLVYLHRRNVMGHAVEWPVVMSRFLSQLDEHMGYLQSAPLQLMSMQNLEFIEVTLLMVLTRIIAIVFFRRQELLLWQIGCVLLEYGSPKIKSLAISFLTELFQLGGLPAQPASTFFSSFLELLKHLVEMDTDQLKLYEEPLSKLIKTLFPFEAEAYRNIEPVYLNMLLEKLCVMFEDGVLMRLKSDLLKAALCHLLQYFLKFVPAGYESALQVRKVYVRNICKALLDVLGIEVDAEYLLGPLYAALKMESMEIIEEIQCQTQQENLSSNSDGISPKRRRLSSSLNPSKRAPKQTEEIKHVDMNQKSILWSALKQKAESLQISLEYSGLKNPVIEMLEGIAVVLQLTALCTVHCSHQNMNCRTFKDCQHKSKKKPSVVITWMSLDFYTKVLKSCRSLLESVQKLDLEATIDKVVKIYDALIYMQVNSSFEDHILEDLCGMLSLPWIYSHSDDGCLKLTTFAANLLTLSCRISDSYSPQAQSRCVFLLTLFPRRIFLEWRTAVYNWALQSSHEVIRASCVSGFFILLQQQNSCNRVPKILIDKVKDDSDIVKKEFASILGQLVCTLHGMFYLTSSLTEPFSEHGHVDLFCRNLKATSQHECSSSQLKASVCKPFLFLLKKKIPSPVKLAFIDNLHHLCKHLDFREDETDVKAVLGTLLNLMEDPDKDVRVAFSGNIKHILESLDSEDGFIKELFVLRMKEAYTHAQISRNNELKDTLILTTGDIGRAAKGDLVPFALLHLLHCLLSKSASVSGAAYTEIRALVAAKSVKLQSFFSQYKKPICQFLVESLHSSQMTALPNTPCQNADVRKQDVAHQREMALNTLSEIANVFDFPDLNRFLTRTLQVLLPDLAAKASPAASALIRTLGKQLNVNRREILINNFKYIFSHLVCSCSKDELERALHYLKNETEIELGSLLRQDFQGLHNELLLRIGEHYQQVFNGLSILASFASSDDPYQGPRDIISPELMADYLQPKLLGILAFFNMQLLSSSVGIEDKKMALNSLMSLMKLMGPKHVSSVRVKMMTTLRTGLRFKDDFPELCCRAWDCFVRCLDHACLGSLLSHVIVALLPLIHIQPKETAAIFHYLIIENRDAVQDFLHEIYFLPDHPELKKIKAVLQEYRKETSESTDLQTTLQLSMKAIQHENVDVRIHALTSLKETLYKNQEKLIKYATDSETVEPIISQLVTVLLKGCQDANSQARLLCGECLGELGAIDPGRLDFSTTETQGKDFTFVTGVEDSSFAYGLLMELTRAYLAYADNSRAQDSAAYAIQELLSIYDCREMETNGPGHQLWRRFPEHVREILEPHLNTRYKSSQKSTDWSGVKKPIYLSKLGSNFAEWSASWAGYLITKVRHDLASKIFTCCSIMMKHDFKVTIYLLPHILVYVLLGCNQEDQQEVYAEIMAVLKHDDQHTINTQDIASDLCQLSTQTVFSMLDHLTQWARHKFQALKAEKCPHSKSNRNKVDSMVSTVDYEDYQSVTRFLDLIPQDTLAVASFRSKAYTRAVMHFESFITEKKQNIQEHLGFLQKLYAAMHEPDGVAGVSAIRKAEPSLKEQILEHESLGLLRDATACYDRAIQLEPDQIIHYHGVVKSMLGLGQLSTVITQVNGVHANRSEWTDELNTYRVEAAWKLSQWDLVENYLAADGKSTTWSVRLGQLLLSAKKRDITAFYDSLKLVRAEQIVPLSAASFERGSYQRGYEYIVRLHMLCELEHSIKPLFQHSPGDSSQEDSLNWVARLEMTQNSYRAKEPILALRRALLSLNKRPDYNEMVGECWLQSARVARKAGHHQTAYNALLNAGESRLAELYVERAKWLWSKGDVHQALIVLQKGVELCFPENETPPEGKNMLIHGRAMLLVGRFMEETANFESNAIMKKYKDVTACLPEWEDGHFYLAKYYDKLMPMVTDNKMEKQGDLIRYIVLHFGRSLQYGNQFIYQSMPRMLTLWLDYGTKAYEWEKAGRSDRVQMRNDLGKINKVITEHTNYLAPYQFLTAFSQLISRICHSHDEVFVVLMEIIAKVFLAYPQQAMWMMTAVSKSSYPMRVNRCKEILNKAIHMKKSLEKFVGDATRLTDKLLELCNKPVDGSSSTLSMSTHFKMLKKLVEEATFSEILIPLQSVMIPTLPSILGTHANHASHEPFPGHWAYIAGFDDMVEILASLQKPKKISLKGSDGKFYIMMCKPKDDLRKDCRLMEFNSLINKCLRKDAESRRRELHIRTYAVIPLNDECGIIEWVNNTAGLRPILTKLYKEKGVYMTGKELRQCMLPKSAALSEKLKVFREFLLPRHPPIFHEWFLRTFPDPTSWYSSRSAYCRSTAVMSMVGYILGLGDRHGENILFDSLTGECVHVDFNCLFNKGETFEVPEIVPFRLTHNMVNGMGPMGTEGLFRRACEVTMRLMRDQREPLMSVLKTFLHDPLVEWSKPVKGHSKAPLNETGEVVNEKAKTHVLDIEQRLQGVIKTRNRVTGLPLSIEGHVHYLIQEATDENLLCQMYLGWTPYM
Chain of full-length human ATR protein (Q8WXE1 other isoform, or with tags, fused parts or gaps partner): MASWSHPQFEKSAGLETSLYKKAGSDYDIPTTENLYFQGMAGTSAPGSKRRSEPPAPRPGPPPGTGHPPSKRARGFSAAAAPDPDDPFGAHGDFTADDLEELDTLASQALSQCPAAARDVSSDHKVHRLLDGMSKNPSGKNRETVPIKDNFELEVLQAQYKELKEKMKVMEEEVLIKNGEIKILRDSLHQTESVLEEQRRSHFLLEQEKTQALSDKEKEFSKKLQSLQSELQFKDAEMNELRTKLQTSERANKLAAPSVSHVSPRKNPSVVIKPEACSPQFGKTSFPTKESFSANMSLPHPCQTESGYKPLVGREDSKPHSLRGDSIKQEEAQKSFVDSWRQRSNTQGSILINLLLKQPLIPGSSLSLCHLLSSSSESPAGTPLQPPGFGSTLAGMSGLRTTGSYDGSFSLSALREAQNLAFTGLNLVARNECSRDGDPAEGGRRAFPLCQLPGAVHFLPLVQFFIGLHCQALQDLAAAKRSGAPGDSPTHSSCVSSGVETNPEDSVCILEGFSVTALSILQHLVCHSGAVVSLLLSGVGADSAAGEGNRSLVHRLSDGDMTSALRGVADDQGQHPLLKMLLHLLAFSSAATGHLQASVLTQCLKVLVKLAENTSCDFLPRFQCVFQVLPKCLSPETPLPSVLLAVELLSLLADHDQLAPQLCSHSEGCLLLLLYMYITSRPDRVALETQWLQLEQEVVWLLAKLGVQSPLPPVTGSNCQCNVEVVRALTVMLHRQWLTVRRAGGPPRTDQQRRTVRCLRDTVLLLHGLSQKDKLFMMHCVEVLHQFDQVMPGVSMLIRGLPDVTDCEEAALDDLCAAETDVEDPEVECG

SMILES | pIC50 [1] | pIC50 (Caco-2 cells)
c1cc(-c2nccc3c(N4C[C@@H]5C[C@H]4CO5)cc(N4CCOCC4)nc23)[nH]n1 [Example 185, 2-(morpholin-4-yl)-4-[(1S,4S)-2-oxa-5-azabicyclo[2.2.1]hept-5-yl]-8-(1H-pyrazol-5-yl)-1,7-naphthyridine] | 6.07 | –
Clc1cc(N2CCOCC2)nc2c(-c3cc[nH]n3)nccc12 [Example 62, 4-chloro-2-morpholin-4-yl-8-(1H-pyrazol-3-yl)-[1,7]naphthyridine] | – | < 5.52
